Experimental data taken from patent publication US9890175B2, “Taxane compound, and preparation method and use thereof” (JIANGSU TASLY DIYI PHARMACEUTICAL CO., LTD., priority 2013, dated 2018).
Read-outs that look alike come from different tables or passages of the source.

Tests used:
K562 leukemia = experiment: MTT proliferation inhibition, K562; assay type: cell-based; conditions: Homo sapiens, K562, read-out: Proliferation inhibition rate, K562 Leukemia
Source text: (§1) 1. Cytotoxicity Assay Using Human Tumor Cell Lines
(§2) Paclitaxel was used as the positive drug.

BGC-823 gastric cancer = experiment: MTT proliferation inhibition, BGC-823; assay type: cell-based; conditions: Homo sapiens, BGC-823, read-out: Proliferation inhibition rate, BGC-823 Gastric cancer
Source text: as §1, §2

[1] = test system: NCI-H460 non-small cell lung cancer; experiment: MTT proliferation inhibition, NCI-H460; assay type: cell-based; conditions: Homo sapiens, NCI-H460, read-out: Proliferation inhibition rate, NCI-H460 Non-small cell lung cancer
Source text: as §1, §2

Hela cervical cancer = experiment: MTT proliferation inhibition, HeLa; assay type: cell-based; conditions: Homo sapiens, read-out: Proliferation inhibition rate, HeLa Uterin cancer
Source text: as §1, §2

B16 melanoma = experiment: MTT proliferation inhibition, B16; assay type: cell-based; conditions: B16, read-out: Proliferation inhibition rate, B16 Melanoma
Source text: as §1, §2

LNCaP prostate cancer = experiment: MTT proliferation inhibition, LNCaP; assay type: cell-based; conditions: Homo sapiens, read-out: Proliferation inhibition rate, LNCaP Prostate cancer
Source text: as §1, §2

[2] = Caco-2 cell monolayer membrane transport assay (Papp and recovery); assay type: in vitro ADME; conditions: human, Caco-2, Caco-2, A-B
Source text: Caco-2 Cell Monolayer Membrane Transport Assay
Human-derived colorectal adenocarcinoma cell line Caco-2 cell monolayer model was used to study the bidirectional transport of the target compounds from the apical (AP) side to the basolateral (BL) side and from BL side to AP side. HPLC was used for quantitative analysis to calculate transport parameters, apparent permeability coefficient (Papp) and the efflux ratio.

Du145 prostate cancer = experiment: MTT proliferation inhibition, Du145; assay type: cell-based; conditions: Homo sapiens, DU-145, read-out: Proliferation inhibition rate, DU145 Prostate cancer
Source text: as §1, §2

A375 melanoma = experiment: MTT proliferation inhibition, A375; assay type: cell-based; conditions: Homo sapiens, A-375, read-out: Proliferation inhibition rate, A375 Melanoma
Source text: as §1, §2

HL-60 leukemia = experiment: MTT proliferation inhibition, HL-60; assay type: cell-based; conditions: Homo sapiens, HL-60, read-out: Proliferation inhibition rate, HL60 Leukemia
Source text: as §1, §2

LN-18 = experiment: MTT proliferation inhibition, LN-18; assay type: cell-based; conditions: Homo sapiens, LN-18, read-out: Proliferation inhibition rate, LN-18 Gastric canser
Source text: as §1, §2

[3] = test system: A549 non-small cell lung cancer; experiment: MTT proliferation inhibition, A549; assay type: cell-based; conditions: Homo sapiens, A549, read-out: Proliferation inhibition rate, A549 Non-small cell lung cancer
Source text: as §1, §2

[4] = test system: MDA-MB-436 breast cancer cells; experiment: MTT proliferation inhibition, MDA-MB-436; assay type: cell-based; conditions: Homo sapiens, MDA-MB-436, read-out: Proliferation inhibition rate, MDA-MB-436 Breast cancer
Source text: as §1, §2

[5] = test system: MCF-7 breast cancer cells; experiment: MTT proliferation inhibition, MCF-7; assay type: cell-based; conditions: Homo sapiens, MCF7, read-out: Proliferation inhibition rate, MCF-7 Breast cancer
Source text: as §1, §2

[6] = test system: breast cancer cell line MCF-7; experiment: IC50 on breast cancer cell line MCF-7; assay type: cell-based; conditions: Homo sapiens, MCF7, 72 h, read-out: MCF-7 (IC50, nM)
Experimental: From the activity evaluation data of the above-mentioned preliminary screen, it can be seen that the series of taxanes derivatives synthesized in the present invention have activity. Afterward, the compounds are investigated to examine their IC50 values on breast cancer cell line MCF-7. […] Experiments for each compound were independently repeated for three times and multiple holes were used in each experiment. The exposure time of drugs was 72 hours.

HT-29 colon cancer = experiment: MTT proliferation inhibition, HT-29; assay type: cell-based; conditions: Homo sapiens, HT-29, read-out: Proliferation inhibition rate, HT29 Colon cancer
Source text: as §1, §2

HCT 116 colon cancer = experiment: MTT proliferation inhibition, HCT 116; assay type: cell-based; conditions: Homo sapiens, HCT-116, read-out: Proliferation inhibition rate, HCT 116 Colon cancer
Source text: as §1, §2

A2780 ovarian cancer = experiment: MTT proliferation inhibition, A2780; assay type: cell-based; conditions: Homo sapiens, A2780, read-out: Proliferation inhibition rate, A2780 Ovarian cancer
Source text: as §1, §2

[7] = Mean, read-out: Recovery rate in mass, Mean
[8] = Sample-01, read-out: Papp A-B, Sample-01
[9] = Sample-01, read-out: Recovery rate in mass, Sample-01
[10] = Sample-02, read-out: Papp A-B, Sample-02
[11] = Sample-02, read-out: Recovery rate in mass, Sample-02

| SMILES | inhibition at 1 µM (K562 leukemia) [%] | inhibition at 1 µM (BGC-823 gastric cancer) [%] | inhibition at 1 µM [1] [%] | inhibition at 1 µM (Hela cervical cancer) [%] | inhibition at 1 µM (B16 melanoma) [%] | inhibition at 1 µM (LNCaP prostate cancer) [%] | recovery [2, 7] [%] | Papp A→B [2, 8] [×10⁻⁶ cm/s] | recovery [2, 9] [%] | Papp A→B [2, 10] [×10⁻⁶ cm/s] | recovery [2, 11] [%] | inhibition at 1 µM (Du145 prostate cancer) [%] | inhibition at 1 µM (A375 melanoma) [%] | inhibition at 1 µM (HL-60 leukemia) [%] | inhibition at 1 µM (LN-18) [%] | inhibition at 1 µM [3] [%] | inhibition at 1 µM [4] [%] | inhibition at 1 µM [5] [%] | IC50 [6] [nM] | inhibition at 1 µM (HT-29 colon cancer) [%] | further results |
| --- | --- | --- | --- | --- | --- | --- | --- | --- | --- | --- | --- | --- | --- | --- | --- | --- | --- | --- | --- | --- | --- |
| CO[C@H]1C(=O)[C@]2(C)[C@@H](OC)C[C@H]3OC[C@@]3(OC(C)=O)[C@H]2[C@H](OC(=O)c2ccccc2)[C@]23OC(=O)O[C@H]2[C@H](OC(=O)[C@H](O)[C@H](CC(C)C)NC(=O)OC(C)(C)C)C(C)=C1C3(C)C [PCMI-05] | 91.4 | 90.9 | 82 | 99.5 | 71.5 | 81.6 | 54.7 | 2.59 | 58.1 | 2.56 | 51.3 | 83.9 | 87.9 | 97.2 | 93.3 | 67.8 | 74.5 | 84.9 | 4.04 ± 0.18 | 87.9 | inhibition at 1 µM (HCT 116 colon cancer): 58.7%; inhibition at 1 µM (A2780 ovarian cancer): 94.6% |
| CO[C@H]1C(=O)[C@]2(C)[C@@H](OC(=O)N(C)C)C[C@H]3OC[C@@]3(OC(C)=O)[C@H]2[C@H](OC(=O)c2ccccc2)[C@]23OC(=O)O[C@H]2[C@H](OC(=O)[C@H](O)[C@H](CC(C)C)NC(=O)OC(C)(C)C)C(C)=C1C3(C)C [PCMI-16] | 95 | 95.3 | 87.2 | 102 | 83.1 | 86.8 | 33.1 | 1.41 | 32.7 | 1.87 | 33.5 | 91.4 | 96.3 | 97.8 | 95.2 | 74.7 | 81.2 | 97.2 | 21.17 ± 0.21 | 89.2 | Papp A→B ([2]; Mean, read-out: Papp A-B, Mean): 1.64 ×10⁻⁶ cm/s; inhibition at 1 µM (HCT 116 colon cancer): 67.1%; inhibition at 1 µM (A2780 ovarian cancer): 96.1% |
| COC(=O)O[C@H]1C(=O)[C@]2(C)[C@@H](OC)C[C@H]3OC[C@@]3(OC(C)=O)[C@H]2[C@H](OC(=O)c2ccccc2)[C@]23OC(=O)O[C@H]2[C@H](OC(=O)[C@H](O)[C@@H](NC(=O)OC(C)(C)C)c2ccccc2)C(C)=C1C3(C)C [PCMI-12] | 91.2 | 93 | 82.3 | 100 | 75.9 | 86.3 | 27.8 to 39.5 | < 1.36 | 27.8 to 29.1 | < 1.43 | 38.2 to 39.5 | 86.7 | 92 | 97.2 | 93.4 | 73.6 | 81.4 | 81.8 | 3.24 ± 0.04 | 85.4 | Papp A→B ([2]; Mean, read-out: Papp A-B, Mean): < 1.43 ×10⁻⁶ cm/s; inhibition at 1 µM (HCT 116 colon cancer): 66.6%; inhibition at 1 µM (A2780 ovarian cancer): 94.3% |
| CO[C@H]1C[C@H]2OC[C@@]2(OC(C)=O)[C@H]2[C@H](OC(=O)c3ccccc3)[C@]34OC(=O)O[C@H]3[C@H](OC(=O)[C@H](O)[C@@H](NC(=O)N(C)C)c3ccccc3)C(C)=C([C@@H](OC(=O)N(C)C)C(=O)[C@]12C)C4(C)C [PCMI-11] | 92.1 | 90.6 | 82.2 | 99.6 | 72.6 | 86.5 | 79.9 | 1.24 | 79.7 | 1.02 | 80.2 | 87.2 | 92.4 | 97.9 | 92.9 | 72.3 | 79 | 82.4 | 4.25 ± 0.06 | 85.9 | Papp A→B ([2]; Mean, read-out: Papp A-B, Mean): 1.13 ×10⁻⁶ cm/s; inhibition at 1 µM (HCT 116 colon cancer): 64.3%; inhibition at 1 µM (A2780 ovarian cancer): 94.6% |
| COC(=O)O[C@H]1C[C@H]2OC[C@@]2(OC(C)=O)[C@H]2[C@H](OC(=O)c3ccccc3)[C@]34OC(=O)O[C@H]3[C@H](OC(=O)[C@H](O)[C@@H](NC(=O)OC(C)(C)C)c3ccccn3)C(C)=C([C@@H](OC)C(=O)[C@]12C)C4(C)C [PCMI-18] | 94.5 | 94.3 | 88.6 | 98.8 | 81.2 | 84.6 | 88.3 | 2.65 | 85.6 | 2.33 | 90.9 | 89.7 | 95.1 | 97.8 | 94.7 | 78.7 | 82.3 | 96.2 | 4.12 ± 0.16 | 85.2 | Papp A→B ([2]; Mean, read-out: Papp A-B, Mean): 2.49 ×10⁻⁶ cm/s; inhibition at 1 µM (HCT 116 colon cancer): 68.3%; inhibition at 1 µM (A2780 ovarian cancer): 95.7% |
| CCSC(=O)O[C@H]1C(=O)[C@]2(C)[C@@H](OC)C[C@H]3OC[C@@]3(OC(C)=O)[C@H]2[C@H](OC(=O)c2ccccc2)[C@]23OC(=O)O[C@H]2[C@H](OC(=O)[C@H](O)[C@@H](NC(=O)OC(C)(C)C)c2ccccc2)C(C)=C1C3(C)C [PCMI-13] | 94.2 | 94 | 86.2 | 100 | 81.2 | 86.3 | 40.8 to 43.1 | < 1.3 | 40.8 to 42 | < 1.67 | 41.5 to 43.1 | 90.7 | 93.1 | 97.5 | 93.8 | 77.1 | 81 | 84.7 | 3.89 ± 0.12 | 87.4 | Papp A→B ([2]; Mean, read-out: Papp A-B, Mean): < 1.67 ×10⁻⁶ cm/s; inhibition at 1 µM (HCT 116 colon cancer): 68.5%; inhibition at 1 µM (A2780 ovarian cancer): 95.9% |
